From BindingDB's records for doi:10.1111/cbdd.12324 (Y.B. Chavan College of Pharmacy, 2014) come the findings set out here.

Bounds are passed on as bounds.

The target of assay [1] is T1, Prostaglandin G/H synthase 1 (Ovis aries, UniProt P05979).
T1 sequence (P05979 whole entry): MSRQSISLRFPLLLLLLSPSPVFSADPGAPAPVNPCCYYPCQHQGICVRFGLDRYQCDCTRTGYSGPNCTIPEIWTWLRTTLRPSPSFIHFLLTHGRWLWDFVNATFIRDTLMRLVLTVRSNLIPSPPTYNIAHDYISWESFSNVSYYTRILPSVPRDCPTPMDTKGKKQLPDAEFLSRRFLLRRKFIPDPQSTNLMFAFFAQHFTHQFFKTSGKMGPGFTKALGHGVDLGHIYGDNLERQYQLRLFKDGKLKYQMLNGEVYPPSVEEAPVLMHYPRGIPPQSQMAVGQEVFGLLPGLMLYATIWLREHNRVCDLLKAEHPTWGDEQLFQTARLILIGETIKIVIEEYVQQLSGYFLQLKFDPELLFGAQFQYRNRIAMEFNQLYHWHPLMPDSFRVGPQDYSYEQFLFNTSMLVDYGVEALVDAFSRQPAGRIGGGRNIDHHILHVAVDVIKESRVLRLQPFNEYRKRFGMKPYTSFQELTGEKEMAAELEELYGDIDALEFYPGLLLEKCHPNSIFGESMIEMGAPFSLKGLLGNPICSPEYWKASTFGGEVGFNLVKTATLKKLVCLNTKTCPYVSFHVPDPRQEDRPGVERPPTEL
The experiment in a line: Cyclooxygenase (COX) Inhibition Assay. To be noted: 37 °C. Here is the method: (§1) The COX-1/COX-2 inhibition assay was done using an enzyme immunoassay (EIA) kit. The reaction buffer (960 uL), containing 0.1 M Tris-HCl (pH 8.0), 5 mM EDTA and 2 mM phenol, with either COX-1 or COX-2 (10 uL) enzyme in the presence of heme (10 uL) was added 10 uL of various concentrations of test drug solutions (0.01, 0.1, 1, 10, 50, and 100 uM in a final volume of 1 mL). The reaction was incubated for 5 min at 37 uC, followed by the addition of 10 uL of AA (100 uM) solution. The reaction was stopped by the addition of 50 uL of 1M HCl after 2 min.

Assay [2] deals with T2, Prostaglandin G/H synthase 2 (Ovis aries, UniProt P79208).
T2 sequence (P79208 whole entry): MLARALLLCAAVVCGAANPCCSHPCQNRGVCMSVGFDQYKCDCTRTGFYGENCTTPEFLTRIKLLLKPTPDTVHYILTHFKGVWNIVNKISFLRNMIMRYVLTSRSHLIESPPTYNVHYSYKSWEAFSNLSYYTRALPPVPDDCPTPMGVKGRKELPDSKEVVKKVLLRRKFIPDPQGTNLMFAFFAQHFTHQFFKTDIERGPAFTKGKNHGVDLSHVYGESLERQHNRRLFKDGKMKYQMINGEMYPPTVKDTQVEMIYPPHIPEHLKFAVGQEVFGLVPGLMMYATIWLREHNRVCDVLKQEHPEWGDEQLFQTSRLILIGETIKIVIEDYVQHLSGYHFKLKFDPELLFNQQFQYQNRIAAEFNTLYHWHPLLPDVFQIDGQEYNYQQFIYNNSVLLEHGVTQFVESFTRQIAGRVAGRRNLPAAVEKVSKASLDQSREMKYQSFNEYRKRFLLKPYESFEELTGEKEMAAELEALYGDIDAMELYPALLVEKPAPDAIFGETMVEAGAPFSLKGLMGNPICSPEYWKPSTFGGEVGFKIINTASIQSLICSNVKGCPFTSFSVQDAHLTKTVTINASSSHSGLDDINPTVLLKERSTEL
The experiment in a line: Cyclooxygenase (COX) Inhibition Assay. Particulars: 37 °C. Here is the method: as §1

As to `Cc1[nH]n(-c2ccccc2)c(=O)c1CNC(N)=S` [1-[(3-methyl-5-oxo-1-phenyl-4,5-dihydro-1H-pyrazol-4-yl)methyl]thiourea (5c)], the half-inhibitory concentration (IC50) is above 100 µM in assay [1] and 85 µM in assay [2].
The matching figures for `Cc1[nH]n(-c2ccccc2)c(=O)c1CN=C(N)N` [1-((3-methyl-5-oxo-1-phenyl-4,5-dihydro-1H-pyrazol-4-yl)methyl)guanidine (5e)]: above 100 µM and 50.7 µM.
In the case of `Cc1[nH]n(-c2ccccc2)c(=O)c1CNC(N)=O` [1-[(3-methyl-5-oxo-1-phenyl-4,5-dihydro-1H-pyrazol-4-yl)methyl]urea (5a)], the results for the IC50 in assay [1] and in assay [2] were above 100 µM and 2.3 µM, respectively.
The matching figures for `Cc1[nH]n(-c2ccccc2)c(=O)c1CNC(=S)Nc1ccccc1` [1-[(3-methyl-5-oxo-1-phenyl-4,5-dihydro-1H-pyrazol-4-yl)methyl]-3-phenylthiourea (5d)]: 80 µM and 0.2 µM.
As to `Cc1[nH]n(-c2ccccc2)c(=O)c1CNC(=O)NN` [N-[(3-methyl-5-oxo-1-phenyl-4,5-dihydro-1H-pyrazol-4yl)methyl] hydrazine carboxamide (5g)], the half-inhibitory concentration (IC50) in assay [1] and in assay [2] was above 100 µM each time.
Turning to `Cc1[nH]n(-c2ccccc2)c(=O)c1CNc1ccc(S(N)(=O)=O)cc1` [4-{[(3-methyl-5-oxo-1-phenyl-4,5-dihydro-1H-pyrazol-4-yl)methyl]amino} benzene sulfonamide (5f)], the IC50 was above 100 µM in assay [1] and 1 µM in assay [2].
As to `Cc1cc(=O)n(-c2ccccc2)[nH]1` [MLS000069602], the half-inhibitory concentration (IC50) in assay [1] is above 100 µM; in assay [2], 35 µM.
On the same counts, the results for `Cc1[nH]n(-c2ccccc2)c(=O)c1CNC(=O)Nc1ccc(Cl)cc1` [1-(4-chlorophenyl)-3-[(3-methyl-5-oxo-1-phenyl-4,5-dihydro-1H-pyrazol-4-yl)methyl]urea (5b)] are above 100 µM and above 100 µM.

As a reminder, the IC50 is the concentration that gives 50% inhibition. Low values mean greater potency, high ones weaker potency.
